US20240245617A1, “LIPID-BASED TOPICAL INJECTION FORMULATIONS” (Beijing Jitai Pharmaceutical Technology Co., Ltd., priority 2022, published 2024)

Tested on: C57BL/6 mice
Test: In vivo bioluminescence after intravenous administration of lipid nanoparticles encapsulating luciferase mRNA
Settings: 0.5 mg/kg mRNA, liver
Procedure: The delivery effect and safety of nanoparticles encapsulating luciferase mRNA (Trilink, L-7202) in mice were evaluated. The test mice were SPF-grade C57BL/6 mice, female, 6-8 weeks old, weighing 18-22 g, and were purchased from SPF (Beijing) Biotechnology Co., Ltd. All animals were acclimatized for more than 7 days prior to the experiment, and had free access to food and water during the experiment. The conditions include alternating light and dark for 12/12 h, the indoor temperature of 20-26° C. and the humidity of 40-70%. The mice were randomly grouped. The lipid nanoparticles encapsulating luciferase mRNA prepared above were injected into mice by intravenous administration at a single dose of 0.5 mg/kg mRNA, and the mice were subjected to in vivo bioluminescence assay using a Small Animal In Vivo Imaging System (IVIS LUMINA III, purchased from PerkinElmer) at 6 h after administration. The assay was performed as follows: D-luciferin solution was prepared in saline at a concentration of 15 mg/mL, and each mouse was given the substrate by intraperitoneal injection. At ten minutes after administration of the substrate, the mice were anesthetized in an anesthesia chamber with isoflurane at a concentration of 2.5%. […] Data acquisition and analysis were performed on the liver.
The in vivo delivery efficiency of lipid nanoparticle carriers was expressed as the mean values of fluorescence intensity and total photon count in different animals within the same subject group, as shown in Table 4. Higher values of fluorescence intensity and total photon count indicate higher in vivo delivery efficiency of this mRNA fragment by lipid nanoparticles. The lipid nanoparticles containing the cationic lipids of the present disclosure have good in vivo delivery efficiency and mainly target the liver.

Row | SMILES | Total photon count in vivo at 6 hours after administration (Total Flux)
1 | CCCCCCCCOC(=O)C(C)(C)CCCCCC(CCCCCC(C)(C)C(=O)OCCCCCCCC)OC(=O)CCN(C)C [Compound 2] | 4.23E+08
2 | CCCCCCCCCOC(=O)C(C)(C)CCCCCC(CCCCCC(C)(C)C(=O)OCCCCCCCCC)OC(=O)CCN(C)C [Compound 3] | 1.75E+09
3 | CC(C)CCCC(C)CCOC(=O)C(C)(C)CCCCCC(CCCCCC(C)(C)C(=O)OCCC(C)CCCC(C)C)OC(=O)CCN(C)C (stereo not drawn) [Compound 6] | 2.25E+09
4 | CC/C=C\CCCCCOC(=O)C(C)(C)CCCCCC(CCCCCC(C)(C)C(=O)OCCCCC/C=C\CC)OC(=O)CCN(C)C [Compound 7] | 1.16E+08
5 | CCCCCCCCCCNC(=O)C(C)(C)CCCCCC(CCCCCC(C)(C)C(=O)NCCCCCCCCCC)OC(=O)CCN(C)C [Compound 8] | 3.26E+07
6 | CCCCCCCCCNC(=O)C(C)(C)CCCCCC(CCCCCC(C)(C)C(=O)NCCCCCCCCC)OC(=O)CCN(C)C [Compound 9] | 6.05E+06
7 | CCCCCCCCCCCCNC(=O)C(C)(C)CCCCCC(CCCCCC(C)(C)C(=O)NCCCCCCCCCCCC)OC(=O)CCN(C)C [Compound 10] | 1.26E+09
8 | CCCCCCCCC(CCCCCCCC)NC(=O)C(C)(C)CCCCCC(CCCCCC(C)(C)C(=O)NC(CCCCCCCC)CCCCCCCC)OC(=O)CCN(C)C [Compound 11] | 4.42E+06
9 | CCCCCCCCCN(CCCCCCCCC)C(=O)C(C)(C)CCCCCC(CCCCCC(C)(C)C(=O)N(CCCCCCCCC)CCCCCCCCC)OC(=O)CCN(C)C [Compound 12] | 1.10E+09
10 | CCCCCCCCCCOC(=O)C(C)(C)CCCCCC(CCCCCC(C)(C)C(=O)OCCCCCCCCCC)OC(=O)CN(C)C [Compound 17] | 6.77E+05
11 | CCCCCCCCCCOC(=O)C(C)(C)CCCCCC(CCCCCC(C)(C)C(=O)OCCCCCCCCCC)OC(=O)CCCN(C)C [Compound 18] | 1.14E+10
12 | CCCCCCCCOC(=O)C(C)(C)CCCCCC(CCCCCC(C)(C)C(=O)OCCCCCCCC)OC(=O)CCCN(C)C [Compound 19] | 3.20E+09
13 | CCCCCCCCCOC(=O)C(C)(C)CCCCCC(CCCCCC(C)(C)C(=O)OCCCCCCCCC)OC(=O)CCCN(C)C [Compound 20] | 2.40E+10
14 | CCCCCCCC#CCOC(=O)C(C)(C)CCCCCC(CCCCCC(C)(C)C(=O)OCC#CCCCCCCC)OC(=O)CCCN(C)C [Compound 23] | 1.43E+10
15 | CCCCC#CCCCCOC(=O)C(C)(C)CCCCCC(CCCCCC(C)(C)C(=O)OCCCCC#CCCCC)OC(=O)CCCN(C)C [Compound 25] | 1.89E+08
16 | CCCCCCC/C=C\COC(=O)C(C)(C)CCCCCC(CCCCCC(C)(C)C(=O)OC/C=C\CCCCCCC)OC(=O)CCCN(C)C [Compound 26] | >4.00E+10
17 | CCCCCC/C=C\CCOC(=O)C(C)(C)CCCCCC(CCCCCC(C)(C)C(=O)OCC/C=C\CCCCCC)OC(=O)CCCN(C)C [Compound 27] | 2.20E+10
18 | CCCCCCCCCOC(=O)C(C)(C)CCCCCC(CCCCCC(C)(C)C(=O)OCCCCCCCCC)OC(=O)CCCCCN(C)C [Compound 32] | 7.30E+09
19 | CCCCCCCCCCSC(=O)C(C)(C)CCCCCC(CCCCCC(C)(C)C(=O)SCCCCCCCCCC)OC(=O)CCN(C)C [Compound 33] | 2.12E+08
20 | CCCCCCCCCCSC(=O)C(C)(C)CCCCCC(CCCCCC(C)(C)C(=O)SCCCCCCCCCC)OC(=O)CCCN(C)C [Compound 34] | 1.26E+10
21 | CCCCCCCCCCSC(=O)C(C)(C)CCCCCC(CCCCCC(C)(C)C(=O)SCCCCCCCCCC)OC(=O)CCCCCN(C)C [Compound 36] | 4.84E+09
